pIC50: −log10 of the molar value.

In the assay the target is His-tagged KRAS G12D protein (Homo sapiens, UniProt P01116, G12D). Briefly: biochemical.
Chain of His-tagged KRAS G12D protein (P01116 1-188 isoform P01116-2 G12D): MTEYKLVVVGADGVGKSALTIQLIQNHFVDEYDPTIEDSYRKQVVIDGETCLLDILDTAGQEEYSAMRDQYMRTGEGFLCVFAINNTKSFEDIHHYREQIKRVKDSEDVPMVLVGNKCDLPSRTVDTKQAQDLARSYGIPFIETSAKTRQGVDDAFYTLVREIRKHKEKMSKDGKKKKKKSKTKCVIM
Protocol: The plate was incubated for 30 minutes at room temperature. Biotinylated KRPep-2d substrate (Amgen) was diluted to nM in Assay Buffer and 2 μL was added to all wells and incubated for 1 hour at room temperature. Detection Reagent (0.4 nM LANCE Eu-W1024 Anti-6×His (Perkin Elmer AD0401), 5 nM streptavidin-d2 (Cisbio 610SADLA)) was prepared in Assay Buffer, then 4 µL was added to the plate and incubated for 1 hour at room temperature.
As usually defined, the pIC50 is the IC50 on a negative log10 scale, so that one unit is a factor of ten. High values mean a low IC50, low ones a high IC50. `CCc1c(F)ccc2cc(O)cc(-c3ncc4c(N5CCCC(NS(C)(=O)=O)C5)nc(OC[C@@]56CCCN5C[C@H](F)C6)nc4c3F)c12` (stereo partly drawn) [Example 110, N-(1-(7-(8-Ethyl-7-fluoro-3-hydroxynaphthalen-1-yl)-8-fluoro-2-(((2R,7aS)-2-fluorotetrahydro-1H-pyrrolizin-7a(5H)-yl)methoxy)pyrido[4,3-d]pyrimidin-4-yl)piperidin-3-yl)methanesulfonamide]: the pIC50 was 8.22. Compound `CCc1c(F)ccc2cc(O)cc(-c3ncc4c(N5C[C@H]6OCC[C@H]65)nc(OC[C@@]56CCCN5C[C@H](F)C6)nc4c3F)c12` (relative stereo) [Example 21, rel-4-(4-((1R,5R)-2-Oxa-6-azabicyclo[3.2.0]heptan-6-yl)-8-fluoro-2-(((2R,7aS)-2-fluorotetrahydro-1H-pyrrolizin-7a(5H)-yl)methoxy)pyrido[4,3-d]pyrimidin-7-yl)-5-ethyl-6-fluoronaphthalen-2-ol] showed a pIC50 of 7.49.

In turn, `CCc1cccc2cc(O)cc(-c3ncc4c(N5C6CCC5C(C)(O)CC6)nc(OC[C@@]56CCCN5C[C@H](F)C6)nc4c3F)c12` (stereo partly drawn) [Example 69, 8-(7-(8-Ethyl-3-hydroxynaphthalen-1-yl)-8-fluoro-2-(((2R,7aS)-2-fluorotetrahydro-1H-pyrrolizin-7a(5H)-yl)methoxy)pyrido[4,3-d]pyrimidin-4-yl)-2-methyl-8-azabicyclo[3.2.1]octan-2-ol] had a pIC50 of 7.44. The same measure for `CCc1c(F)ccc2cc(O)cc(-c3ncc4c(N5CCC[C@H](C(N)=O)C5)nc(OC[C@@]56CCCN5C[C@H](F)C6)nc4c3F)c12` [Example 90, (S)-1-(7-(8-Ethyl-7-fluoro-3-hydroxynaphthalen-1-yl)-8-fluoro-2-(((2R,7aS)-2-fluorotetrahydro-1H-pyrrolizin-7a(5H)-yl)methoxy)pyrido[4,3-d]pyrimidin-4-yl)piperidine-3-carboxamide]: 7.80. `CCc1c(F)ccc2cc(O)cc(-c3ncc4c(N5C6CCC5C(C)(O)CC6)nc(OC[C@@]56CCCN5C[C@H](F)C6)nc4c3F)c12` (stereo partly drawn) [Example 70, 8-(7-(8-Ethyl-7-fluoro-3-hydroxynaphthalen-1-yl)-8-fluoro-2-(((2R,7aS)-2-fluorotetrahydro-1H-pyrrolizin-7a(5H)-yl)methoxy)pyrido[4,3-d]pyrimidin-4-yl)-2-methyl-8-azabicyclo[3.2.1]octan-2-ol] had a pIC50 of 7.49. Take `CCc1c(F)ccc2cc(O)cc(-c3ncc4c(N5CCCC[C@@H](N)C5)nc(OC[C@@]56CCCN5C[C@H](F)C6)nc4c3F)c12` [Example 131, 4-(4-((R)-3-Aminoazepan-1-yl)-8-fluoro-2-(((2R,7aS)-2-fluorotetrahydro-1H-pyrrolizin-7a(5H)-yl)methoxy)pyrido[4,3-d]pyrimidin-7-yl)-5-ethyl-6-fluoronaphthalen-2-ol]: the pIC50 is 8.40. For `CCc1c(F)ccc2cc(O)cc(-c3ncc4c(N5CCCC(C)(O)CC5)nc(OC[C@@]56CCCN5C[C@H](F)C6)nc4c3F)c12` (stereo partly drawn) [Example 142, 1-(7-(8-Ethyl-7-fluoro-3-hydroxynaphthalen-1-yl)-8-fluoro-2-(((2R,7aS)-2-fluorotetrahydro-1H-pyrrolizin-7a(5H)-yl)methoxy)pyrido[4,3-d]pyrimidin-4-yl)-4-methylazepan-4-ol], the pIC50 is 7.85. `CCc1c(F)ccc2cc(O)cc(-c3ncc4c(N5C[C@H](O)C[C@H](C(F)(F)F)C5)nc(OC[C@@]56CCCN5C[C@H](F)C6)nc4c3F)c12` [Example 154, (3R,5S)-1-(7-(8-Ethyl-7-fluoro-3-hydroxy-naphthalen-1-yl)-8-fluoro-2-(((2R,7aS)-2-fluorotetrahydro-1H-pyrrolizin-7a(5H)-yl)methoxy)pyrido[4,3-d]pyrimidin-4-yl)-5-(trifluoromethyl) piperidin-3-ol] showed a pIC50 of 7.80. As for `CCc1c(F)ccc2cc(O)cc(-c3ncc4c(N5CCC[C@H]6NC(=O)C[C@H]65)nc(OC[C@@]56CCCN5C[C@H](F)C6)nc4c3F)c12` (relative stereo) [Example 63, rel-(3aR,7aR)-4-(7-(8-Ethyl-7-fluoro-3-hydroxynaphthalen-1-yl)-8-fluoro-2-(((2R,7aS)-2-fluorotetrahydro-1H-pyrrolizin-7a(5H)-yl)methoxy)pyrido[4,3-d]pyrimidin-4-yl)octahydro-2H-pyrrolo[3,2-b]pyridin-2-one], the figure is 7.41. Turning to `CCc1c(F)ccc2cc(O)cc(-c3ncc4c(N5CC6CC(O)C(C6)C5)nc(OC[C@@]56CCCN5C[C@H](F)C6)nc4c3F)c12` (single isomer, unassigned) [Example 25], the negative-log IC50 (pIC50) is 7.96. The same measure for `CCc1c(F)ccc2cc(O)cc(-c3ncc4c(N5C[C@H]6COC[C@H]6C5)nc(OC[C@@]56CCCN5C[C@H](F)C6)nc4c3F)c12` [Example 122, 5-Ethyl-6-fluoro-4-(8-fluoro-2-(((2R,7aS)-2-fluorotetrahydro-1H-pyrrolizin-7a(5H)-yl)methoxy)-4-((3aR,6aS)-tetrahydro-1H-furo[3,4-c]pyrrol-5(3H)-yl)pyrido[4,3-d]pyrimidin-7-yl)naphthalen-2-ol]: 7.48; for `CCc1c(F)ccc2cc(O)cc(-c3ncc4c(N5C6CCC(C(N)=O)C5CC6)nc(OC[C@@]56CCCN5C[C@H](F)C6)nc4c3F)c12` (relative stereo) [Example 123, rac-(15,5S)-8-(7-(8-Ethyl-7-fluoro-3-hydroxynaphthalen-1-yl)-8-fluoro-2-(((2R,7aS)-2-fluorotetrahydro-1H-pyrrolizin-7a(5H)-yl)methoxy)pyrido[4,3-d]pyrimidin-4-yl)-8-azabicyclo[3.2.1]octane-2-carboxamide]: 7.33. Regarding `CCc1c(F)ccc2cc(O)cc(-c3ncc4c(N5CC6CC5CCC6O)nc(OCC56CCCN5C[C@H](F)C6)nc4c3F)c12` (stereo in doubt) [Example 155, 6-(7-(8-Ethyl-7-fluoro-3-hydroxy-naphthalen-1-yl)-8-fluoro-2-(((2R,7aS)-2-fluorotetrahydro-1H-pyrrolizin-7a(5H)-yl)methoxy)pyrido[4,3-d]pyrimidin-4-yl)-6-azabicyclo[3.2.1] octan-2-ol], the pIC50 was 7.48. This pIC50 and that of the compound before are within 0.2 log units of each other. The same measure for `C#Cc1c(F)ccc2cccc(-c3ncc4c(N5CCC[C@@](C)(O)C5)nc(OC[C@@]56CCCN5C[C@H](F)C6)nc4c3F)c12` [Example 50, (R)-1-(7-(8-Ethynyl-7-fluoronaphthalen-1-yl)-8-fluoro-2-(((2R,7aS)-2-fluorotetrahydro-1H-pyrrolizin-7a(5H)-yl)methoxy)pyrido[4,3-d]pyrimidin-4-yl)-3-methylpiperidin-3-ol]: 8.10. Regarding `CCc1c(F)ccc2cc(O)cc(-c3ncc4c(N5CC6CC(O)C(C6)C5)nc(OC[C@@]56CCCN5C[C@H](F)C6)nc4c3F)c12` (single isomer, unassigned) [Example 26], the pIC50 was 8.40. As to `CCc1c(F)ccc2cc(O)cc(-c3ncc4c(N5C[C@@H](C(N)=O)CC[C@H]5C)nc(OC[C@@]56CCCN5C[C@H](F)C6)nc4c3F)c12` (relative stereo) [Example 64, rel-(3S,6R)-1-(7-(8-Ethyl-7-fluoro-3-hydroxynaphthalen-1-yl)-8-fluoro-2-(((2R,7aS)-2-fluorotetrahydro-1H-pyrrolizin-7a(5H)-yl)methoxy)pyrido[4,3-d]pyrimidin-4-yl)-6-methylpiperidine-3-carboxamide], the pIC50 is 8.22.

(Values after patent US20250034167A1, “HETEROCYCLIC COMPOUNDS AND METHODS OF USE” (AMGEN INC., priority 2021, published 2025).)
